Where two headings read alike, the source gives them in different places.
Legend:
H3K36me3 in A549 cells = assay: In-Cell Western (ICW) assay of SETD2 inhibitors (A549 assay); format: cell-based, human; details: A549 cells, read-out: SETD2 A549
How it was run: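 A549 cells seeded at 4,000/well onto compound and incubated 3 days at 37° C. Methanol-fixed cells stained overnight at 4° C with anti-H3K36me3 (1:1000), then IRDye 800CW secondary with DRAQ5 DNA counterstain. Plates read by Licor imaging at 700 and 800 channels.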

SETD2(1434-1711) = target: T1, SETD2(1434-1711) (Homo sapiens, UniProt Q9BYW2); assay: SETD2 (1434-1711) assay; format: biochemical; details: read-out: SETD2 (1434-1711)
T1 construct: SETD2 (1434-1711) Assay; catalogue N/A
T1 sequence (Q9BYW2 1434-1711): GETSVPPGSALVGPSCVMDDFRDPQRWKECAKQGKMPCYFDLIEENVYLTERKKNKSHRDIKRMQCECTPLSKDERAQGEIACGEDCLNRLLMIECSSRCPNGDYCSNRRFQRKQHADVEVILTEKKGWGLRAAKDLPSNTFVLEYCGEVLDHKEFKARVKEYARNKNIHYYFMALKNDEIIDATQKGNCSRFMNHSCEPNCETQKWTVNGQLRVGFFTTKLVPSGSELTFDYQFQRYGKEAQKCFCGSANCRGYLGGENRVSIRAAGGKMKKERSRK

Row | IC50 (H3K36me3 in A549 cells; Homo sapiens) [nM] | IC50 (SETD2(1434-1711)) [nM] | IC50 (H3K36me3 in A549 cells) [nM] | SMILES
1 | 300 | 6 | – | Cc1ccc(F)c2cc(C(=O)Nc3cc(Cl)cc(N4CCC(N(C)C)C4)c3)[nH]c12 (stereo not shown) [compound 120]
2 | 300 | 40 | – | Cc1ccc(F)c2cc(C(=O)Nc3cccc(N4CCC5(CCCN5CC(F)F)CC4)c3)[nH]c12 [compound 142]
3 | – | 30 | 200 | Cc1ccc(F)c2cc(C(=O)Nc3cccc(N4CCN(C(=O)CO)CC4)c3)[nH]c12 [compound 72]
4 | – | 5 | 30 | Cc1ccc(F)c2cc(C(=O)Nc3cc(F)cc(N4CCC(N5CCN6C(=O)N(C)CC6C5)C4)c3)[nH]c12 (stereo not shown) [compound 2]
5 | 400 | 100 | – | Cc1ccc(F)c2cc(C(=O)Nc3cccc(-c4ccno4)c3)[nH]c12 [compound 196]
6 | 1500 | 200 | – | Cc1ccc(F)c2cc(C(=O)Nc3cccc(N4CCNCC4=O)c3)[nH]c12 [compound 321]
7 | – | 2600 | > 2000 | CC(=O)N1CC2CC(C1)N2c1cccc(NC(=O)c2cc3c(F)ccc(C)c3[nH]2)c1 [compound 365]
8 | > 25000 | 13600 | – | Cc1cccnc1C(CCCN1CCNCC1)NC(=O)c1cc2cccc(C)c2[nH]1 (stereo not shown) [compound 567]
9 | 700 | 200 | – | Cc1ccc(F)c2cc(C(=O)Nc3cccc(N4CCN(C(=O)OC(C)(C)C)CC4)c3)[nH]c12 [compound 260]
10 | – | 400 | 1600 | Cc1ccc(F)c2cc(C(=O)Nc3cccc(-c4c[nH]cn4)c3)[nH]c12 [compound 337]
11 | – | 300 | 2400 | Cc1ccc(F)c2cc(C(=O)NC(c3nc4ccccn4c3C)C3CC3)[nH]c12 (stereo not shown) [compound 400]
12 | 300 | 10 | – | CNC1CCN(c2cccc(NC(=O)c3cc4c(F)ccc(C)c4[nH]3)c2)C1 (stereo not shown) [compound 128]
13 | – | 70 | 100 | CC(=O)N1CCN(c2cccc(NC(=O)c3cc4c(F)ccc(C)c4[nH]3)c2F)CC1 [compound 52]
14 | > 25000 | 900 | – | CCN(CC)C1CCc2cc(NC(=O)c3cc4cccc(C)c4[nH]3)ccc2C1 (stereo not shown) [compound 537]
15 | – | 7600 | 10600 | Cc1cccc2cc(C(=O)Nc3cnc4nccn4c3)[nH]c12 [compound 484]
16 | 300 | 50 | – | CNC(=O)N1CCN(c2cccc(NC(=O)c3cc4c(F)ccc(C)c4[nH]3)c2)CC1 [compound 139]
17 | – | 60 | 500 | Cc1ccc(F)c2cc(C(=O)Nc3cccc(-c4cnn(CCO)c4)c3)[nH]c12 [compound 219]
18 | – | 6 | 30 | Cc1ccc(F)c2cc(C(=O)Nc3cc(F)cc(N4CCC(N5CCN(CC(=O)N(C)C)CC5)C4)c3)[nH]c12 (stereo not shown) [compound 4]

Row | IC50 (H3K36me3 in A549 cells; Homo sapiens) [nM] | IC50 (SETD2(1434-1711)) [nM] | IC50 (H3K36me3 in A549 cells) [nM] | SMILES
19 | – | 200 | 600 | Cc1ccc(F)c2cc(C(=O)Nc3cccc(N4CCN(C5CC5)CC4)c3)[nH]c12 [compound 236]
20 | 300 | 200 | – | Cc1ccc(F)c2cc(C(=O)Nc3cccc(N4CCN(C5CCOC5)CC4)c3)[nH]c12 (stereo not shown) [compound 146]
21 | – | 8600 | 24900 | Cc1cc(C(=O)NC2CCN(C)CC2)c(C)nc1C(NC(=O)c1cc2cccc(C)c2[nH]1)C1CC1 (stereo not shown) [compound 529]
22 | 9100 | 800 | – | Cc1ccc(N2CCN(S(=O)(=O)CCN)CC2)cc1NC(=O)c1cc2cccc(C)c2[nH]1 [compound 476]
23 | > 25000 | > 200000 | – | Cc1cccc2cc(C(=O)N3CCCC34CCc3ccccc34)[nH]c12 (stereo not shown) [compound 619]
24 | – | 10 | 200 | Cc1ccc(F)c2cc(C(=O)Nc3cc(Cl)cc(N4CCN(C)CC4)c3)[nH]c12 [compound 91]
25 | – | 400 | 14600 | Cc1ccc(F)c2cc(C(=O)Nc3cccc(-c4cnc(N)[nH]4)c3)[nH]c12 [compound 501]
26 | – | 10 | 70 | Cc1ccc(F)c2cc(C(=O)Nc3cc(F)cc(N4CCN(C(=O)N(C)C)CC4)c3)[nH]c12 [compound 25]
27 | 300 | 20 | – | Cc1ccc(F)c2cc(C(=O)Nc3cccc(N4CCC(N(C)CCO)C4)c3)[nH]c12 (stereo not shown) [compound 148]
28 | – | 700 | > 2000 | Cc1ccc(F)c2cc(C(=O)Nc3cccc(Cc4ncc[nH]4)c3)[nH]c12 [compound 357]
29 | > 25000 | > 200000 | – | Cc1cccnc1C(NC(=O)c1cc2cccc(Cc3ccn[nH]3)c2[nH]1)C1CC1 (stereo not shown) [compound 618]
30 | 400 | 100 | – | Cc1ccc(F)c2cc(C(=O)Nc3cccc(-c4cncn4C)c3)[nH]c12 [compound 197]
31 | 300 | 80 | – | Cc1ccc(F)c2cc(C(=O)Nc3cc(F)cc(N4CCC(C)(N5CCOCC5)C4)c3)[nH]c12 (stereo not shown) [compound 159]
32 | 300 | 20 | – | Cc1ccc(F)c2cc(C(=O)Nc3cccc(N4CC5(CN(C)C5)C4)c3)[nH]c12 [compound 135]
33 | – | 4000 | > 25000 | Cc1ccc(F)c2cc(C(=O)Nc3cccc(N4CCOc5ccccc54)c3)[nH]c12 [compound 547]
34 | 4600 | 30 | – | Cc1ccc(F)c2cc(C(=O)Nc3cccc(N4CCC(NCc5cnc[nH]5)CC4)c3)[nH]c12 [compound 433]
35 | > 25000 | 12900 | – | Cc1cccc2cc(C(=O)NCCc3ccccc3N3CCOC(CN(C)C)C3)[nH]c12 (stereo not shown) [compound 566]

More lines, now with the values behind:

Row | SMILES | IC50 (H3K36me3 in A549 cells; Homo sapiens) [nM] | IC50 (SETD2(1434-1711)) [nM] | IC50 (H3K36me3 in A549 cells) [nM]
36 | Cc1nc([C@H]2CCC[C@@H](NC(=O)c3cc4c(F)ccc(C)c4[nH]3)C2)no1 [compound 1011] | 900 | 300 | –
37 | CC(=O)N1CCN([C@@H]2CCC[C@@H](NC(=O)c3cc4c(F)ccc(C)c4[nH]3)C2)CC1C (stereo partly shown) [compound 907] | 1700 | 900 | –
38 | Cc1ccc(F)c2cc(C(=O)NC3CCCC(N4CCC(N(CCO)S(C)(=O)=O)C4)C3)[nH]c12 (stereo not shown) [compound 1150] | – | 4200 | > 2000
39 | Cc1ccc(F)c2cc(C(=O)N[C@@H]3CCC[C@H](N4CCN5C(=O)COCC5C4)C3)[nH]c12 (stereo partly shown) [compound 1045] | 30 | 8 | –
40 | CC(=O)N1CCN([C@@H]2CCC[C@@H](NC(=O)c3cc4c(F)ccc(C)c4[nH]3)C2)C[C@@H]1C(F)(F)F [compound 1071] | > 2000 | 5200 | –
41 | CC(=O)N(C(C)C)C1CCN(C2CCC[C@@H](NC(=O)c3cc4c(F)ccc(C)c4[nH]3)C2)C1 (stereo partly shown) [compound 862] | – | 400 | > 2000
42 | COCC(=O)N1CCN([C@H]2CCC[C@@H](NC(=O)c3cc4c(F)ccc(C)c4[nH]3)C2)CC1 [compound 846] | – | 20 | 100
43 | Cc1ccc(F)c2cc(C(=O)NC3C(=O)NCCc4ccccc43)[nH]c12 (stereo not shown) [compound 327] | – | 500 | 1600
44 | CC(=O)N1C2CC1CN(c1cccc(NC(=O)c3cc4c(F)ccc(C)c4[nH]3)c1)C2 [compound 257] | 600 | 200 | –
45 | CC(=O)N1CC2CCC1CN2C1CCCC(NC(=O)c2cc3c(F)ccc(C)c3[nH]2)C1 (stereo not shown) [compound 961] | – | 30 | 400
46 | Cc1ccc(F)c2cc(C(=O)NC3CCCC(N4CCC(N(C)C(=O)CO)C4)C3)[nH]c12 (stereo not shown) [compound 996] | – | 800 | > 2000
47 | CCC(=O)N1CCN([C@@H]2CCC[C@@H](NC(=O)c3cc4c(F)ccc(C)c4[nH]3)C2)CC1 [compound 840] | – | 900 | > 2000
48 | CC(=O)N1CCN(C2CC(NC(=O)c3cc4c(F)ccc(C)c4[nH]3)CN(C)C2)CC1 (stereo not shown) [compound 360] | – | 1200 | > 2000
49 | CC(=O)N1CCN(C2CCCC(NC(=O)c3cc4c(F)ccc(C)c4[nH]3)C2)CC1C (stereo not shown) [compound 967] | – | 20 | 100
50 | Cc1nnc(C2CCCC(NC(=O)c3cc4c(F)ccc(C)c4[nH]3)C2)o1 (stereo not shown) [compound 976] | – | 6600 | > 2000
51 | Cc1ccc(F)c2cc(C(=O)NC3CCCC(N4CCN(C5CC5)C(=O)C4)C3)[nH]c12 (stereo not shown) [compound 977] | – | 20 | 200
52 | Cc1ccc(F)c2cc(C(=O)NC3CCCC(N4CCN(C(=O)CO)C(C(F)(F)F)C4)C3)[nH]c12 (stereo not shown) [compound 1117] | – | 30 | 10
53 | Cc1ccc(F)c2cc(C(=O)N[C@@H]3CCC[C@H](N4CCCNC(=O)C4)C3)[nH]c12 [compound 823] | – | 400 | 400
54 | COCC(=O)N(C)C1CCN([C@H]2CCC[C@@H](NC(=O)c3cc4c(F)ccc(C)c4[nH]3)C2)C1 (stereo partly shown) [compound 880] | 100 | 20 | –
55 | Cc1ccc(F)c2cc(C(=O)N[C@@H]3CCC[C@@H](c4ccncn4)C3)[nH]c12 [compound 1064] | > 2000 | 2300 | –
56 | Cc1ccc(F)c2cc(C(=O)N[C@@H]3CCC[C@H](N4CCC(N(C)C)C4=O)C3)[nH]c12 (stereo partly shown) [compound 1002] | 1800 | 1200 | –
57 | Cc1ccc(F)c2cc(C(=O)N[C@@H]3CCC[C@H](N4CCN(C5CCOC5)CC4)C3)[nH]c12 (stereo partly shown) [compound 924] | 600 | 100 | –
58 | Cc1ccc(F)c2cc(C(=O)N[C@@H]3CCC[C@H](N4CCn5c(nccc5=O)C4)C3)[nH]c12 [compound 1049] | 100 | 50 | –
59 | Cc1ccc(F)c2cc(C(=O)NC(c3nccc4ccccc34)C3CC3)[nH]c12 (stereo not shown) [Cpd. No. 507, N-(cyclopropyl(isoquinolin-1-yl)methyl)-4-fluoro-7-methyl-1H-indole-2-carboxamide] | 15100 | 1100 | –
